Molecular target: T1, S1P1 receptor (Homo sapiens, UniProt P21453)
T1 construct: expressed in transfected cells; membranes
Assay: S1P1 GTPγS binding assay
Format: biochemical
Settings: membranes of Rat Basophilic Leukaemia cells (RBL) stably expressing S1P1 receptor, 35S-GTPγS
Procedure: Rat Basophilic Leukaemia cells (RBL) stably expressing S1P1 receptor were grown to 80% confluency before being harvested into 10 ml Phospho-Buffered Saline (PBS) and centrifuged at 1200 rpm for 5 minutes. After removal of the supernatant, the pellet was re-suspended and homogenised in 20 volumes assay buffer (20 mM HEPES pH 7.4, 100 mM NaCl, 10 mM MgCl2.6H2O, 10 μM GDP Saponin 10 μg/ml). The membrane suspension was further centrifuged for 20 minutes at 20,000 rpm re-homogenised and spun again. Following the second centrifugation the pellet was resuspended in an appropriate volume (1 ml for each flask of cells) and assayed for protein concentration.
Concentrated stock of S1P was sonicated before serial dilutions were prepared from a starting concentration of 10^−5 M. Diluted membranes (10 μg/well) were incubated with various concentrations of S1P and 0.3 nM ^35S-GTPγS (NEN; specific activity 1250 Ci/mmol) in 96 deep well plates. Binding was performed at 30° C. for 45 minutes and terminated by harvesting the membranes onto GF/B filter plates using a Packard Universal Harvester. After drying the plates for 45 minutes, 50 μl of Microscint 0 was added to each well and binding measured on a Topcount NXT (Perkin Elmer). Data was analysed using Graphpad Prism 4 and expressed as percentage stimulation above basal. […]

T1 sequence (P21453 whole entry): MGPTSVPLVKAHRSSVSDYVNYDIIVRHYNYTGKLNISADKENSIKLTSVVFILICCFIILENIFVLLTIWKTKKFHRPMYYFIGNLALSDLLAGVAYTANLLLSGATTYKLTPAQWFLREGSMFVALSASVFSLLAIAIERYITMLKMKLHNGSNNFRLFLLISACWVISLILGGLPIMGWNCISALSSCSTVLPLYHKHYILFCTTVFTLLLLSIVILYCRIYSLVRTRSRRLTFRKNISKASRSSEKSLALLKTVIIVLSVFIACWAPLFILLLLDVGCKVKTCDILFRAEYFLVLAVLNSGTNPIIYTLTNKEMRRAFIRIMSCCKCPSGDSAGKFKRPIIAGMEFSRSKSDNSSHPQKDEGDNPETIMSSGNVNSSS

EC50: < 1 µM
Structure (SMILES): CC(C)Oc1ccc(-c2nc(-c3ccc4c(cnn4CCC(=O)O)c3)no2)cc1Cl [Example 1, 3-[5-(5-{3-Chloro-4-[(1-methylethyl)oxy]phenyl}-1,2,4-oxadiazol-3-yl)-1H-indazol-1-yl]propanoic acid]
